Results: paper PMC4462585, “Synthesis and Biological Evaluation of 3-Alkyl-1,5-Diaryl-1H-Pyrazoles as Rigid Analogues of Combretastatin A-4 with Potent Antiproliferative Activity” (PLoS ONE, 2015)

Tests used:
[1] = system: gastric adenocarcinoma cell line SGC-7901; test: MTT antiproliferative assay, SGC-7901; type: cell-based; conditions: Homo sapiens, 72 h drug exposure, triplicate, read-out: Antiproliferative activity (IC50 ± SD) SGC-7901
Text: (§1) Pulmonary adenocarcinoma cell lines (A549) and gastric adenocarcinoma cell lines (SGC-7901) were provided as gifts (purchased from the Cell Resource Center of Shanghai Institutes for Biological Sciences) from the China-Japan Research Institute of Medical and Pharmaceutical Sciences, Shenyang Pharmaceutical University. Fibrosarcoma cell lines (HT-1080) were purchased from the Cell Resource Center of Shanghai Institutes for Biological Sciences. All cells were maintained in DMEM containing 1% antibiotics (100 units of penicillin and […] per mL in 0.9% normal saline) and 10% foetal bovine serum in a humidified atmosphere containing 5% CO2 at 37°C.
(§2) Antiproliferative activities of CA-4 and the target compounds were measured using a colourimetric assay using 3-(4,5-dimethylthiazol-2yl-)-2,5-diphenyltetrazolium bromide (MTT). Approximately 3 × 10^4 cells were seeded in a 96-well plate. After 24 h of incubation at 37°C, cells were exposed to compounds of differing concentrations (0.0008 μg/mL, 0.004 μg/mL, 0.02 μg/mL, 0.10 μg/mL, 0.50 μg/mL, 2.5 μg/mL, 12.5 μg/mL, 62.5 μg/mL) for 72 h. After treatment, cells were washed with 1X PBS followed by addition of 100 μL of 0.05% MTT reagent to each well, followed by incubation for 4 h at 37°C. After incubation, the supernatant from each well was carefully removed and the formazan crystals were dissolved in 100 μL of DMSO. The colour density was measured spectrophotometrically at 490 nm using a microplate reader (SpectraMax Plus384, Molecular Devices Corp., USA). The percentage of cell growth inhibition was calculated as follow: inhibition ratio % = (Acontrol—Atreated) / Acontrol × 100%. The 50% inhibitory concentration (IC50) was defined as the concentration that reduced the absorbance of the untreated wells by 50% of the vehicle in the MTT assay.

[2] = system: purified bovine tubulin; test: Tubulin assembly (polymerization) assay, cell-free, fluorescence-based; type: biochemical; conditions: 37°C, IC50 calculated at 80 min, three experiments, read-out: Inhibition of tubulin polymerization IC50
Experimental: Fig 5 Dose-response effects of CA-4 (1), 7i and 7k on the inhibition of tubulin polymerization. Purified bovine tubulin and GTP were mixed in a 96-well plate. The reaction was initiated by warming the solution from 4°C to 37°C. DMSO was used as a vehicle control. The effect on the assembly of tubulin was monitored using a plate reader at 1 min intervals for 90 min at 37°C.
The effect of compounds 7i and 7k on the polymerization of purified brain tubulin was determined employing a fluorescence-based tubulin polymerization assay kit (Cat. #BK011P, Cytoskeleton, Inc., USA) according to the manufacturer’s protocol. Tubulin was re-suspended in ice-cold G-PEM buffer (80 mM PIPES, 2 mM MgCl2, 0.5 mM EGTA, 1 mM GTP, 20% (v/v) glycerol) and added to wells on a 96-well plate containing the designated concentration of drugs or vehicle. Samples were mixed well, and tubulin assembly was monitored (emission wavelength: 450 nm; excitation wavelength: 360 nm) at 1 min intervals for 90 min at 37°C using a plate reader ([…]). IC50 values were calculated at 80 min using SPSS software in three experiments.

[3] = system: three human cancer cell lines (SGC-7901, A549 and HT-1080); test: MTT antiproliferative assay, three human cancer cell lines; type: cell-based; conditions: HT-1080, SGC-7901, A549, 72 h, read-out: Antiproliferative IC50 values, range over the three cancer cell lines
Text: as §1
Antiproliferative activities of CA-4 and the target compounds were measured using a colourimetric assay using 3-(4,5-dimethylthiazol-2yl-)-2,5-diphenyltetrazolium bromide (MTT). Approximately 3 × 10^4 cells were seeded in a 96-well plate. After 24 h of incubation at 37°C, cells were exposed to compounds of differing concentrations (0.0008 μg/mL, 0.004 μg/mL, 0.02 μg/mL, 0.10 μg/mL, 0.50 μg/mL, 2.5 μg/mL, 12.5 μg/mL, 62.5 μg/mL) for 72 h. […] The colour density was measured spectrophotometrically at 490 nm using a microplate reader (SpectraMax Plus384, Molecular Devices Corp., USA). The percentage of cell growth inhibition was calculated as follow: inhibition ratio % = (Acontrol—Atreated) / Acontrol × 100%. […]

[4] = system: microtubule network in HT-1080 cells; test: Immunostaining of tubulin assembly in HT-1080 cells; type: cell-based, human; conditions: 2-fold IC50 concentration (7k 0.18 μM), 48 h
Experimental: Microtubules were labelled using the indirect immuno-fluorescence method and were analysed by fluorescence microscopy. […] HT-1080 cells were treated with 7k (0.18 μM) for 48 h (scale bar = 10 μm). The left, middle and right panels represent tubulin assembly stained with FITC, DAPI and a merge of the corresponding left and middle panels, respectively. Images were taken using a confocal microscope. Immunostaining was performed to detect microtubule-associated tubulin protein after exposure to CA-4 and compound 7k. The SGC-7901 and HT-1080 cells were seeded at a density of 1 × 10^4 per well on a 24-well plate and grown for 24 h. […] The control and treated cells were fixed in acetone:methanol (1:1) for 30 min at -20°C, washed with 1X PBS, incubated for 30 min in 1X PBS containing 2% BSA, and then 0.1% Triton X-100. The primary tubulin antibody (Cell Signaling Technology, MA, USA) was diluted (1:100) with 2% BSA in 1X PBS and incubated overnight at 4°C. The cells were washed with 1X PBS to remove unbound primary antibody, and then cells were incubated for 3 h at 37°C with FITC-conjugated anti-mouse secondary antibody diluted 1:1000 with 2% BSA in PBS.

[5] = system: microtubule network in SGC-7901 cells; test: Immunostaining of tubulin assembly in SGC-7901 cells; type: cell-based, human; conditions: 2-fold IC50 concentration (7k 0.14 μM), 48 h
Experimental: Microtubules were labelled using the indirect immuno-fluorescence method and were analysed by fluorescence microscopy. […] SGC-7901 cells were treated with 7k (0.14 μM) for 48 h (scale bar = 10 μm). The left, middle and right panels represent the tubulin assembly stained with FITC, DAPI and a merge of the corresponding left and middle panels, respectively. Images were taken using a confocal microscope. Immunostaining was performed to detect microtubule-associated tubulin protein after exposure to CA-4 and compound 7k. The SGC-7901 and HT-1080 cells were seeded at a density of 1 × 10^4 per well on a 24-well plate and grown for 24 h. […] The control and treated cells were fixed in acetone:methanol (1:1) for 30 min at -20°C, washed with 1X PBS, incubated for 30 min in 1X PBS containing 2% BSA, and then 0.1% Triton X-100. The primary tubulin antibody (Cell Signaling Technology, MA, USA) was diluted (1:100) with 2% BSA in 1X PBS and incubated overnight at 4°C. The cells were washed with 1X PBS to remove unbound primary antibody, and then cells were incubated for 3 h at 37°C with FITC-conjugated anti-mouse secondary antibody diluted 1:1000 with 2% BSA in PBS.

[6] = system: pulmonary adenocarcinoma cell line A549; test: MTT antiproliferative assay, A549; type: cell-based; conditions: Homo sapiens, 72 h drug exposure, triplicate, read-out: Antiproliferative activity (IC50 ± SD) A549
Text: as §1, §2

[7] = system: fibrosarcoma cell line HT-1080; test: MTT antiproliferative assay, HT-1080; type: cell-based; conditions: Homo sapiens, 72 h drug exposure, triplicate, read-out: Antiproliferative activity (IC50 ± SD) HT-1080
Text: as §1, §2

## COc1ccc(-c2cc(C)nn2-c2cc(OC)c(OC)c(OC)c2)cc1N [Compound 7k, 3-Methyl-5-(3-amino-4-methoxyphenyl)-1-(3,4,5-trimethoxyphenyl)-1H-pyrazole]
[1]
  IC50: 76 ± 9 nM
[2]
  IC50: 1700 nM
[3]
  IC50: 76 to 120 nM
[4]
  Effect on microtubule network (immunofluorescence), HT-1080: disruption of the tubulin network
[5]
  Effect on microtubule network (immunofluorescence), SGC-7901: disruption of the tubulin network
[6]
  IC50: 96 ± 11 nM
other
  melting point: 129 to 130 °C
[7]
  IC50: 122 ± 13 nM

## COc1ccc(/C=C\c2cc(OC)c(OC)c(OC)c2)cc1O [Compound 1, Combretastatin A-4]
[1]
  IC50: 16 ± 10 nM
[2]
  IC50: 900 nM
[3]
  IC50: 16 to 35 nM
[4]
  Effect on microtubule network (immunofluorescence), HT-1080: disruption of the tubulin network
[5]
  Effect on microtubule network (immunofluorescence), SGC-7901: disruption of the tubulin network
[6]
  IC50: 35 ± 9 nM
[7]
  IC50: 23 ± 12 nM

## COc1ccc(-c2cc(C)nn2-c2cc(OC)c(OC)c(OC)c2)cc1O [Compound 7i, 3-Methyl-5-(3-hydroxy-4-methoxyphenyl)-1-(3,4,5-trimethoxyphenyl)-1H-pyrazole]
[1]
  IC50: 275 ± 20 nM
[2]
  IC50: 2500 nM
[6]
  IC50: 1120 ± 120 nM
other
  melting point: 130 to 131 °C
[7]
  IC50: 930 ± 130 nM
